The record followed here is patent publication US12054498B2, “Heteroaromatic macrocyclic ether chemotherapeutic agents” (Nuvalent, Inc., priority 2020, dated 2024).

The target of one assay is T1, ALK-wt (Homo sapiens, UniProt Q9UM73).
T1 construct: purchased Carna 08-518
Nature of the assay: Biochemical kinase assay, ALK-wt kinase domain. The settings on record: apparent inhibitory constant, Morrison equation; ATP 2 mM in substrate solution; read-out: ALK-wt Ki^app. On the procedure: (§1) First, 250 nL of compound dissolved in DMSO (100-fold of the desired concentration) was dispensed into a 384-well plate. A 12.5 μL substrate solution containing ATP (2 mM) and fluorogenic phosphorylation substrate AQT0101 (26 μM for ALK and ROS1, AssayQuant) or AQT0104 (26 μM for TRKA, AssayQuant) in buffer (50 mM HEPES pH 7.5, 0.01% Brij-35, 0.5 mM EGTA, 10 mM MgCl2) was added and mixed thoroughly. Then, a 12.5 μL kinase solution containing ALK-wt (1.5 nM, Carna, 08-518), ALK ALK L1196M/G1202R (3 nM, SignalChem, A19-12NG), ROS1-wt (0.6 nM, Carna, 08-163), ROS1-G2032R (0.5 nM, SignalChem, R14-12BG), or TRKA-wt (1 nM, BPS Bio, 40280) kinase domains in buffer (50 nM HEPES pH 7.5, 0.01% Brij-35, 2% glycerol, 0.4 mg/mL BSA, 0.5 mM EGTA, and 10 mM MgCl2) was added and mixed thoroughly. The plate was sealed and read by SpectraMax Paradigm at λ=485 nm every 2 minutes for 120 minutes at 30° C. Initial rates of reaction (v) were calculated from the change in fluorescence intensity over time during the initial, linear portion of the reaction. Finally, apparent inhibitory constants (Ki^app) were determined from regression of v and I (inhibitor concentration) to Morrison Equation (E=enzyme concentration): […]

A further assay has as its target T2, ALK L1196M/G1202R (Homo sapiens, UniProt Q9UM73, G1202R/L1196M).
T2 construct: purchased SignalChem A19-12NG
The assay is described as follows: Biochemical kinase assay, ALK L1196M/G1202R kinase domain. The settings on record: apparent inhibitory constant, Morrison equation; ATP 2 mM in substrate solution; read-out: ALK-L1196M-G1202R Ki^app. How it is done:
as §1

The next assay has as its target T3, ROS1-wt (Homo sapiens, UniProt P08922).
T3 construct: purchased Carna 08-163
Nature of the assay: Biochemical kinase assay, ROS1-wt kinase domain. As to conditions: apparent inhibitory constant, Morrison equation; ATP 2 mM in substrate solution; read-out: ROS1-wt Ki^app. How it is done:
as §1, with “Then, a 12.5 μL kinase solution containing ALK-wt (1.5 nM, Carna, 08-518), ALK ALK L1196M/G1202R (3 nM, SignalChem, A19-12NG), ROS1-wt (0.6 nM, Carna, 08-163), ROS1-G2032R (0.5 nM, SignalChem, R14-12BG), or TRKA-wt (1 nM, BPS Bio, 40280) kinase domains in buffer (50 nM HEPES pH 7.5, 0.01% Brij-35, 2% glycerol, 0.4 mg/mL BSA, 0.5 mM EGTA, and 10 mM MgCl2) was added and mixed thoroughly.” left out

The next assay has as its target T4, ROS1-G2032R (Homo sapiens, UniProt P08922, G2032R).
T4 construct: purchased SignalChem R14-12BG
The assay is described as follows: Biochemical kinase assay, ROS1-G2032R kinase domain. The settings on record: apparent inhibitory constant, Morrison equation; ATP 2 mM in substrate solution; read-out: ROS1-G2032R Ki^app. On the procedure:
as §1, with “Then, a 12.5 μL kinase solution containing ALK-wt (1.5 nM, Carna, 08-518), ALK ALK L1196M/G1202R (3 nM, SignalChem, A19-12NG), ROS1-wt (0.6 nM, Carna, 08-163), ROS1-G2032R (0.5 nM, SignalChem, R14-12BG), or TRKA-wt (1 nM, BPS Bio, 40280) kinase domains in buffer (50 nM HEPES pH 7.5, 0.01% Brij-35, 2% glycerol, 0.4 mg/mL BSA, 0.5 mM EGTA, and 10 mM MgCl2) was added and mixed thoroughly.” left out

The next assay has as its target T5, TRKA-wt (Homo sapiens, UniProt P04629).
T5 construct: or TRKA-wt (1 nM, BPS Bio, 40280) kinase domains in buffer; purchased BPS Bio 40280
The assay is described as follows: Biochemical kinase assay, TRKA-wt kinase domain. As to conditions: apparent inhibitory constant, Morrison equation; ATP 2 mM in substrate solution; read-out: TRKA-wt Ki^app. How it is done:
as §1

Assay [1] addresses T6, Ba/F3 cells CD74-ROS1 wild-type (wt) (Homo sapiens, UniProt P08922).
T6 construct: fusion of the C-terminus of ROS1 with the N-terminus of various partner proteins; host or cells: Ba/F3 (RIKEN), retroviral pMSCV-puro; the other entry of the earlier key: CD74 (P04233, HLA class II histocompatibility antigen gamma chain)
Nature of the assay: Ba/F3 cell proliferation assay, CD74-ROS1 wild-type. It counts as cell-based. The settings on record: 72 hours, CellTiter-Glo. The gist of the method: (§2)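 Cells seeded 1 day, then treated with 3-fold compound dilutions for 72 h; viability by CellTiter-Glo luminescence. IC50 from percent inhibition by four-parameter logistic fit.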
For orientation: ATP-based viability assays read luminescence as a measure of living cells.

Assay [2] deals with T7, Ba/F3 cells CD74-ROS1 G2032R (Homo sapiens, UniProt P08922, G2032R).
T7 construct: fusion of the C-terminus of ROS1 with the N-terminus of various partner proteins; host or cells: Ba/F3 (RIKEN), retroviral pMSCV-puro; the other entry of the earlier key: CD74 (P04233, HLA class II histocompatibility antigen gamma chain)
The assay is described as follows: Ba/F3 cell proliferation assay, CD74-ROS1 G2032R. The assay is classed as cell-based. The settings on record: 72 hours, CellTiter-Glo. The essentials: as §2

In assay [3] the target is T8, Ba/F3 cells EML4-ALK wt (variant 1) (Homo sapiens, UniProt Q9UM73).
T8 construct: echinoderm microtubule-associated protein-like 4 (EML4) gene and the ALK tyrosine kinase domain; host or cells: Ba/F3 (RIKEN), retroviral pMSCV-puro; the other entry of the earlier key: EML4 (Q9HC35, Echinoderm microtubule-associated protein-like 4)
Nature of the assay: Ba/F3 cell proliferation assay, EML4-ALK wt (variant 1). The assay is classed as cell-based. As to conditions: 72 hours, CellTiter-Glo. The gist of the method:
(§3)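 Stable fusion-expressing Ba/F3 clones, 1,000 cells/well. Compounds for 72 h, CellTiter-Glo readout; IC50 by 4-parameter logistic regression.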

Assay [4] deals with T9, Ba/F3 cells EML4-ALK L1196M/G1202R (variant 1) (Homo sapiens, UniProt Q9UM73, G1202R/L1196M).
T9 construct: echinoderm microtubule-associated protein-like 4 (EML4) gene and the ALK tyrosine kinase domain; host or cells: Ba/F3 (RIKEN), retroviral pMSCV-puro; the other entry of the earlier key: EML4 (Q9HC35, Echinoderm microtubule-associated protein-like 4)
Nature of the assay: Ba/F3 cell proliferation assay, EML4-ALK L1196M/G1202R (variant 1). The assay is classed as cell-based. As to conditions: 72 hours, CellTiter-Glo. The gist of the method:
as §3

A further assay concerns the target T10, Ba/F3 cells TPM3-TRKA (Homo sapiens, UniProt P04629).
T10 construct: host or cells: Ba/F3 (RIKEN), retroviral pMSCV-puro; the other entry of the earlier key: TPM3 (P06753, Tropomyosin alpha-3 chain)
The assay is described as follows: Ba/F3 cell proliferation assay, TPM3-TRKA. It counts as cell-based. The settings on record: 72 hours, CellTiter-Glo, read-out: TPM3-NTRK1-wt IC50. The essentials:
as §3

The test system of assay [5] is TPM3-NTRK1-wt IC50 / primary target IC50 (e.g. CD74-ROS1-wt). The assay is described as follows: TRKA selectivity in Ba/F3 cells (TRKA potency divided by primary target potency). It counts as cell-based. The settings on record: for TPM3-NTRK1-wt/CD74-ROS1-G2032R selectivity ratio: TRKA potency / CD74-ROS1-G2032R potency; for TPM3-NTRK1-wt/CD74-ROS1-wt selectivity ratio: TRKA potency / CD74-ROS1-wt potency; for TPM3-NTRK1-wt/EML4-ALK-L1196M-G1202R selectivity ratio: TRKA potency / EML4-ALK-L1196M-G1202R potency; for TPM3-NTRK1-wt/EML4-ALK-wt selectivity ratio: TRKA potency / EML4-ALK-wt potency. How it is done:
TRKA selectivity was calculated by dividing a compound's TRKA potency by its primary target potency (e.g. TPM3-NTRK1-wt IC50/CD74-ROS1-wt IC50). Compound selectivity can be interpreted by binning ratio values: bin A for very high selectivity, ratio >30-fold; bin B for high selectivity, ratio >10-fold; bin C for moderate selectivity, ratio ≥1; and bin D for low selectivity, ratio <1. […] (nd=not determined).

The structures appear in SMILES notation. Where only a bound is given, the exact number is not on record here.

Usually IC50 stands for the point on the concentration scale where inhibition reaches its midpoint.

T2 sequence (Q9UM73 1116-1392 L1196M/G1202R limits assumed): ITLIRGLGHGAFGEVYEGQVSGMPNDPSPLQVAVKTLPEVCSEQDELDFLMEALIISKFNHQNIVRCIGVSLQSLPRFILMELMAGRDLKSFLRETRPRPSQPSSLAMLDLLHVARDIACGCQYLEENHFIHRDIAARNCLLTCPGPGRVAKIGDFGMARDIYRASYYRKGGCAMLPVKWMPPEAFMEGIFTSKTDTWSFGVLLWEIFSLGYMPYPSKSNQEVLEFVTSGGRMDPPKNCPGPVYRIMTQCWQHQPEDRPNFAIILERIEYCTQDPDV
T9 sequence (Q9UM73 with tags, fused parts or gaps L1196M/G1202R): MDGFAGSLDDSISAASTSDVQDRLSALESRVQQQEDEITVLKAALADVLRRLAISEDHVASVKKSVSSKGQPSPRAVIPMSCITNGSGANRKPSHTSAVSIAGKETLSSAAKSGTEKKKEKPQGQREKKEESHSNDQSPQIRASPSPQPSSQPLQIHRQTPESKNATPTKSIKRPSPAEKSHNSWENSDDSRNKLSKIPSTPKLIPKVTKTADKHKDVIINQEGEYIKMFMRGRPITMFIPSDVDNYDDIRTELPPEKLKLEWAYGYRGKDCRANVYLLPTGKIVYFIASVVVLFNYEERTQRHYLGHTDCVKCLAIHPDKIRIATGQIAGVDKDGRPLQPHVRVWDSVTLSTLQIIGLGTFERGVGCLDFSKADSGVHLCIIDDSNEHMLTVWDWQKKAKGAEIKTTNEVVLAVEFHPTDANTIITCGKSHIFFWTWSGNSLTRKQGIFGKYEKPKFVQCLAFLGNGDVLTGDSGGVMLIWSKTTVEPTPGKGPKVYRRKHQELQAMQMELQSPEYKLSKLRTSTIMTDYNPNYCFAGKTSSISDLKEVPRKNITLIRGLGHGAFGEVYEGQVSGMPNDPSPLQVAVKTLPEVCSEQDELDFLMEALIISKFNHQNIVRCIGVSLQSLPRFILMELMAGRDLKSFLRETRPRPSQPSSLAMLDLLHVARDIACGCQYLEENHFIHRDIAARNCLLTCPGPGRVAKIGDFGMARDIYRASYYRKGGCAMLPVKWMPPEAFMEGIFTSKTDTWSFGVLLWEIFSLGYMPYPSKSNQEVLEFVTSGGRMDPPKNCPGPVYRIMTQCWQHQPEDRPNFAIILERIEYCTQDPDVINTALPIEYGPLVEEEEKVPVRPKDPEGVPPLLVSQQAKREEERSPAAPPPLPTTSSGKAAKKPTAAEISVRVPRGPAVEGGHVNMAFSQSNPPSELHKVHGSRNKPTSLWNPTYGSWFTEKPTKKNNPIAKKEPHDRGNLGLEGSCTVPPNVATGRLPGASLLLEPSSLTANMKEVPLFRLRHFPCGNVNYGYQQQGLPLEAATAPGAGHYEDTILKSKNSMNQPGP
T3 sequence (P08922 1945-2222 limits assumed): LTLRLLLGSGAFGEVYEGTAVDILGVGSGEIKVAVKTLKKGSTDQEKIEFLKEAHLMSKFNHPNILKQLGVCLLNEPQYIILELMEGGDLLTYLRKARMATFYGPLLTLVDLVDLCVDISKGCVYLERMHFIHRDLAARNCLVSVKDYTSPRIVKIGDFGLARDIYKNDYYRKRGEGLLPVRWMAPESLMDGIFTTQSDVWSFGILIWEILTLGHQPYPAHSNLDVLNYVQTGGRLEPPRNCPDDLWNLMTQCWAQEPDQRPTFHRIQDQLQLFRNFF
T1 sequence (Q9UM73 1116-1392 limits assumed): as the sequence (Q9UM73 1116-1392 L1196M/G1202R limits assumed) above, with M81L, R87G counted along it
T5 sequence (P04629 510-781 limits assumed): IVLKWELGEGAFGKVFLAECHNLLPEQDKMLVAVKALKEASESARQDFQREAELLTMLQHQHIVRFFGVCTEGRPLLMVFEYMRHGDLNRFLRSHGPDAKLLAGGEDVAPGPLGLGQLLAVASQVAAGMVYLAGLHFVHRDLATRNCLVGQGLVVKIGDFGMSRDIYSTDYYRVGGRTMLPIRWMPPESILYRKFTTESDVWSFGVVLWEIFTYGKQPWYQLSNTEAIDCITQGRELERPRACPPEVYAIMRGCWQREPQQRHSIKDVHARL
T6 sequence (P08922 1883-2347 limits assumed): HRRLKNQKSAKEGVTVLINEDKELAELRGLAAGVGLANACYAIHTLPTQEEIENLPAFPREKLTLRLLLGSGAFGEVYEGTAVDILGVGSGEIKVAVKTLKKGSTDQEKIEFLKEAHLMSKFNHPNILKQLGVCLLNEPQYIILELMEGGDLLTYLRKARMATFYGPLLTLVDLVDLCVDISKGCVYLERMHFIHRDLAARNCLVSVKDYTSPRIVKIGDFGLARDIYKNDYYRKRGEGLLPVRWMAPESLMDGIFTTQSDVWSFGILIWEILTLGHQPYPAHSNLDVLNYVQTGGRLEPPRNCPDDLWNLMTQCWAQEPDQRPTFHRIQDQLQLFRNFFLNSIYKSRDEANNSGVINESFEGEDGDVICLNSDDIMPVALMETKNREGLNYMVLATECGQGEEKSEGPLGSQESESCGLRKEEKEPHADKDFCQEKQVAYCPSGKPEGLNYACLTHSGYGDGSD
T10 sequence (P04629 510-796 limits assumed): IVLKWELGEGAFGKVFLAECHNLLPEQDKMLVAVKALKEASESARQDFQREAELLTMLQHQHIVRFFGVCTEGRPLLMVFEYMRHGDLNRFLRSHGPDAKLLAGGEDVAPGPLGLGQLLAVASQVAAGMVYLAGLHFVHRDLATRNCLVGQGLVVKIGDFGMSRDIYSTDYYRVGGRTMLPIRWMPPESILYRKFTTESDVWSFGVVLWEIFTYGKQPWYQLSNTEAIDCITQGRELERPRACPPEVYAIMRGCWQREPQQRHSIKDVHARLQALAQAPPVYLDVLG
T7 sequence (P08922 1883-2347 G2032R limits assumed): as the sequence (P08922 1883-2347 limits assumed) above, with G150R counted along it
T4 sequence (P08922 1945-2222 G2032R limits assumed): as the sequence (P08922 1945-2222 limits assumed) above, with G88R counted along it
T8 sequence (Q9UM73 with tags, fused parts or gaps): as the sequence (Q9UM73 with tags, fused parts or gaps L1196M/G1202R) above, with M635L, R641G counted along it

In the case of `C[C@H]1Oc2cc(cnc2N)-c2c(cnn2C2CCC2)Cn2nncc2-c2ccc(F)cc21` [Example 7, (19R)-3-cyclobutyl-16-fluoro-19-methyl-20-oxa-3,4,8,9,10,23-hexaazapentacyclo[19.3.1.0^2,^6.0^8,^12.0^13,^18]pentacosa-1(24),2(6),4,9,11,13,15,17,21(25),22-decaen-22-amine], the Ki at ALK-wt is below 50 nM; at ALK L1196M/G1202R it was below 50 nM; at ROS1-wt, below 50 nM; on ROS1-G2032R, 50 to 500 nM; on TRKA-wt, above 500 nM. Moreover, the IC50 was 0.1 to 50 nM in assay [1]; 0.1 to 50 nM in [2]; 0.1 to 50 nM in [3]; 50 to 500 nM in assay [4]; above 500 nM on Ba/F3 cells TPM3-TRKA. Further, the TPM3-NTRK1-wt/CD74-ROS1-G2032R selectivity ratio entry in assay [5] was “A (bin A for very high selectivity, ratio >30-fold)”. The TPM3-NTRK1-wt/CD74-ROS1-wt selectivity ratio result in [5] was “A (bin A for very high selectivity, ratio >30-fold)”. Also, the TPM3-NTRK1-wt/EML4-ALK-L1196M-G1202R selectivity ratio entry in [5] is listed as “B (bin B for high selectivity, ratio >10-fold)”. The TPM3-NTRK1-wt/EML4-ALK-wt selectivity ratio result in assay [5] is reported as “A (bin A for very high selectivity, ratio >30-fold)”.
With `CCn1ncc2c1-c1cnc(N)c(c1)O[C@H](C)c1cc(F)ccc1-c1cn(C)nc1C2` [Example 9, (19R)-3-ethyl-16-fluoro-10,19-dimethyl-20-oxa-3,4,9,10,23-pentaazapentacyclo[19.3,1.0^2,^6.0^8,^12.0^13,^18]pentacosa-1(24),2(6),4,8,11,13,15,17,21 (25),22-decaen-22-amine], the Ki on ALK-wt was below 50 nM; on ALK L1196M/G1202R it was below 50 nM; on ROS1-wt, below 50 nM; on ROS1-G2032R, below 50 nM; on TRKA-wt, 50 to 500 nM. The IC50 in [1] is 0.1 to 50 nM; in assay [2] it was 0.1 to 50 nM; in [3] it was 0.1 to 50 nM; in assay [4], 0.1 to 50 nM; on Ba/F3 cells TPM3-TRKA it was above 500 nM. In addition, the TPM3-NTRK1-wt/CD74-ROS1-G2032R selectivity ratio entry in assay [5] is reported as “A (bin A for very high selectivity, ratio >30-fold)”. Also, the TPM3-NTRK1-wt/CD74-ROS1-wt selectivity ratio entry in assay [5] is “A (bin A for very high selectivity, ratio >30-fold)”. In assay [5], the TPM3-NTRK1-wt/EML4-ALK-L1196M-G1202R selectivity ratio result is recorded as “B (bin B for high selectivity, ratio >10-fold)”. Also, the TPM3-NTRK1-wt/EML4-ALK-wt selectivity ratio result in [5] is recorded as “A (bin A for very high selectivity, ratio >30-fold)”.
